Activity calls are given as the source filed them. The calls are words filed in the database; no cut-off is given here.
Assays:
UO-31 = assay: Antiproliferative activity against human UO31 cells assessed as growth inhibition after 48 hrs by sulforhodamine B assay; format: functional; details: UO-31, 48 h
[1] = system: Panel NCI-60 (60 carcinoma cell lines); assay: Antiproliferative activity against human NCI60 cells assessed as growth inhibition after 48 hrs by sulforhodamine B assay; format: functional
WI-38 = assay: Cytotoxicity activity against human WI38 cells assessed as reduction in cell viability measured after 48 hrs by MTT assay; format: cell-based; details: WI-38, 48 h
[2] = Selectivity index, ratio of IC50 for human WI38 cells to GI50 for human NCI60 cells
PC-3 = assay: Antiproliferative activity against human PC3 cells assessed as growth inhibition after 48 hrs by sulforhodamine B assay; format: functional; details: PC-3, 48 h
OVCAR-3 = assay: Antiproliferative activity against human OVCAR3 cells assessed as growth inhibition after 48 hrs by sulforhodamine B assay; format: functional; details: OVCAR-3, 48 h
[3] = system: Panel NCI-60 (60 carcinoma cell lines); assay: Antiproliferative activity against human NCI60 cells assessed as growth inhibition at 10 uM after 48 hrs by sulforhodamine B assay; format: functional; details: read-out: GI
DU-145 = assay: Antiproliferative activity against human DU145 cells assessed as growth inhibition after 48 hrs by sulforhodamine B assay; format: functional; details: DU-145, 48 h
ACHN = assay: Antiproliferative activity against human ACHN cells assessed as growth inhibition after 48 hrs by sulforhodamine B assay; format: functional
786-0 = assay: Antiproliferative activity against human 786-0 cells assessed as growth inhibition after 48 hrs by sulforhodamine B assay; format: functional; details: 786-0, 48 h
SK-OV-3 = assay: Antiproliferative activity against human SKOV3 cells assessed as growth inhibition after 48 hrs by sulforhodamine B assay; format: functional; details: SK-OV-3, 48 h
NCI/ADR-RES = assay: Antiproliferative activity against human NCI-ADR-RES cells assessed as growth inhibition after 48 hrs by sulforhodamine B assay; format: functional
IGROV-1 = assay: Antiproliferative activity against human IGROV1 cells assessed as growth inhibition after 48 hrs by sulforhodamine B assay; format: functional; details: IGROV-1, 48 h
SK-MEL-5 = assay: Antiproliferative activity against human SK-MEL-5 cells assessed as growth inhibition after 48 hrs by sulforhodamine B assay; format: functional; details: SK-MEL-5, 48 h
SK-MEL-2 = assay: Antiproliferative activity against human SK-MEL-2 cells assessed as growth inhibition after 48 hrs by sulforhodamine B assay; format: functional; details: SK-MEL-2, 48 h
MDA-MB-435 = assay: Antiproliferative activity against human MDA-MB-435 cells assessed as growth inhibition after 48 hrs by sulforhodamine B assay; format: functional; details: MDA-MB-435, 48 h
Malme-3M = assay: Antiproliferative activity against human MALME-3M cells assessed as growth inhibition after 48 hrs by sulforhodamine B assay; format: functional
LOX IMVI = assay: Antiproliferative activity against human LOXIMVI cells assessed as growth inhibition after 48 hrs by sulforhodamine B assay; format: functional
U-251 = assay: Antiproliferative activity against human U251 cells assessed as growth inhibition after 48 hrs by sulforhodamine B assay; format: functional; details: U-251, 48 h
SNB-75 = assay: Antiproliferative activity against human SNB75 cells assessed as growth inhibition after 48 hrs by sulforhodamine B assay; format: functional; details: SNB-75, 48 h
SNB-19 = assay: Antiproliferative activity against human SNB19 cells assessed as growth inhibition after 48 hrs by sulforhodamine B assay; format: functional; details: SNB-19, 48 h
SF-295 = assay: Antiproliferative activity against human SF295 cells assessed as growth inhibition after 48 hrs by sulforhodamine B assay; format: functional; details: SF-295, 48 h
SF-268 = assay: Antiproliferative activity against human SF268 cells assessed as growth inhibition after 48 hrs by sulforhodamine B assay; format: functional; details: SF-268, 48 h
KM12 = assay: Antiproliferative activity against human KM12 cells assessed as growth inhibition after 48 hrs by sulforhodamine B assay; format: functional; details: KM12, 48 h
HT-29 = assay: Antiproliferative activity against human HT-29 cells assessed as growth inhibition after 48 hrs by sulforhodamine B assay; format: functional; details: HT-29, 48 h
HCT-15 = assay: Antiproliferative activity against human HCT15 cells assessed as growth inhibition after 48 hrs by sulforhodamine B assay; format: functional; details: HCT-15, 48 h
HCC 2998 = assay: Antiproliferative activity against human HCC2998 cells assessed as growth inhibition after 48 hrs by sulforhodamine B assay; format: functional; details: HCC 2998, 48 h
NCI-H460 = assay: Antiproliferative activity against human NCI-H460 cells assessed as growth inhibition after 48 hrs by sulforhodamine B assay; format: functional; details: NCI-H460, 48 h
NCI-H322M = assay: Antiproliferative activity against human NCI-H322M cells assessed as growth inhibition after 48 hrs by sulforhodamine B assay; format: functional
EKVX = assay: Antiproliferative activity against human EKVX cells assessed as growth inhibition after 48 hrs by sulforhodamine B assay; format: functional
A549 = assay: Antiproliferative activity against human A549/ATCC cells assessed as growth inhibition after 48 hrs by sulforhodamine B assay; format: functional; details: A549, 48 h
MOLT-4 = assay: Antiproliferative activity against human MOLT4 cells assessed as growth inhibition after 48 hrs by sulforhodamine B assay; format: functional; details: MOLT-4, 48 h
HL-60(TB) = assay: Antiproliferative activity against human HL-60(TB) cells assessed as growth inhibition after 48 hrs by sulforhodamine B assay; format: functional; details: HL-60, 48 h
CCRF-CEM = assay: Antiproliferative activity against human CCRF-CEM cells assessed as growth inhibition after 48 hrs by sulforhodamine B assay; format: functional
Hs-578T = assay: Antiproliferative activity against human Hs578T cells assessed as growth inhibition after 48 hrs by sulforhodamine B assay; format: functional
Erythrocyte [4] = assay: Haemolytic activity in human erythrocytes assessed as induction of hemolysis at 1.25 mM after 30 mins relative to H202; format: cell-based; details: erythrocyte, 0.5 h, 1250 µM
Erythrocyte [5] = assay: Haemolytic activity in human erythrocytes assessed as induction of hemolysis at 0.625 mM after 30 mins relative to H202; format: cell-based; details: erythrocyte, 0.5 h, 625 µM
[6] = Antioxidant activity assessed as DPPH radical scavenging activity incubated in dark for 30 mins by spectrophotometric method relative to ascorbic acid; format: functional
[7] = Antioxidant activity assessed as hydroxyl radical scavenging activity after 1 hr by salicylic acid-based Fenton reaction assay; format: functional
[8] = Pro-oxidant activity assessed as increase in bleomycin-Fe2+ induced calf thymus DNA damage at 2 mM after 1 hr by thiobarbituric acid based absorbance analysis
HCT-116 [9] = assay: Induction of apoptosis in human HCT116 cells assessed as increase in caspase 9 mRNA expression at 100 nM after 6 hrs hrs by SYBR green dye-based qRT-PCR analysis relative to control; format: functional
HCT-116 [10] = assay: […] in CDK1 mRNA expression in human HCT116 cells at 100 nM after 6 hrs hrs by SYBR green dye-based qRT-PCR analysis relative to control; format: functional

N=C(N)c1ccc(-c2ccc(-c3ccc4ccccc4c3)s2)s1
GI50 (UO-31): 1.96 µM | GI50 [1]: 2.39 µM | LC50 [1]: 30.2 µM | TGI [1]: 6.02 µM | IC50 (WI-38): 81.3 µM | Selectivity Index [2]: 34 | GI50 (PC-3): 2.19 µM | GI50 (OVCAR-3): 1.89 µM | inhibition of growth at 10 µM [3]: 96.7% | GI50 (DU-145): 1.83 µM | GI50 (ACHN): 2.53 µM | GI50 (786-0): 2.14 µM | GI50 (SK-OV-3): 20.2 µM | GI50 (NCI/ADR-RES): 2.02 µM | GI50 (IGROV-1): 2.16 µM | GI50 (SK-MEL-5): 14.7 µM | GI50 (SK-MEL-2): 2.52 µM | GI50 (MDA-MB-435): 1.91 µM | GI50 (Malme-3M): 3.1 µM | GI50 (LOX IMVI): 1.71 µM | GI50 (U-251): 1.81 µM | GI50 (SNB-75): 1.93 µM | GI50 (SNB-19): 1.95 µM | GI50 (SF-295): 2.27 µM | GI50 (SF-268): 2.25 µM | GI50 (KM12): 1.92 µM | GI50 (HT-29): 1.71 µM | GI50 (HCT-15): 1.69 µM | GI50 (HCC 2998): 2.02 µM | GI50 (NCI-H460): 1.95 µM | GI50 (NCI-H322M): 1.64 µM | GI50 (EKVX): 2.46 µM | GI50 (A549): 2.03 µM | GI50 (MOLT-4): 1.47 µM | GI50 (HL-60(TB)): 1.81 µM | GI50 (CCRF-CEM): 1.87 µM | GI50 (Hs-578T): 2.07 µM | Activity (Erythrocyte [4]): Non-Toxic | Activity (Erythrocyte [5]): Non-Toxic | fold change (FC) [6]: 0.6 | Activity [7]: Active | Activity [8]: Active | fold change (FC) (HCT-116 [9]): 2.33 | fold change (FC) (HCT-116 [10]): 0.93

N=C(N)c1ccc(-c2ccc(-c3ccc(F)cc3)o2)o1
GI50 (UO-31): 1.43 µM | GI50 [1]: 1.47 µM | LC50 [1]: 9.55 µM | TGI [1]: 3.46 µM | IC50 (WI-38): 10.6 µM | Selectivity Index [2]: 7.2 | GI50 (PC-3): 1.22 µM | GI50 (OVCAR-3): 1.84 µM | inhibition of growth at 10 µM [3]: 83.8% | GI50 (DU-145): 1.8 µM | GI50 (ACHN): 1.6 µM | GI50 (786-0): 1.66 µM | GI50 (SK-OV-3): 2.32 µM | GI50 (NCI/ADR-RES): 1.68 µM | GI50 (IGROV-1): 1.58 µM | GI50 (SK-MEL-5): 1.56 µM | GI50 (SK-MEL-2): 1.76 µM | GI50 (MDA-MB-435): 0.35 µM | GI50 (Malme-3M): 1.63 µM | GI50 (LOX IMVI): 1.55 µM | GI50 (U-251): 1.6 µM | GI50 (SNB-75): 1.55 µM | GI50 (SNB-19): 1.73 µM | GI50 (SF-295): 1.51 µM | GI50 (SF-268): 1.92 µM | GI50 (KM12): 1.44 µM | GI50 (HT-29): 0.61 µM | GI50 (HCT-15): 0.63 µM | GI50 (HCC 2998): 1.37 µM | GI50 (NCI-H460): 1.76 µM | GI50 (NCI-H322M): 1.6 µM | GI50 (EKVX): 1.35 µM | GI50 (A549): 1.65 µM | GI50 (MOLT-4): 1.6 µM | GI50 (HL-60(TB)): 1.8 µM | GI50 (CCRF-CEM): 1.84 µM | GI50 (Hs-578T): 1.95 µM | Activity (Erythrocyte [4]): Non-Toxic | Activity (Erythrocyte [5]): Non-Toxic | fold change (FC) [6]: 0.1 | Activity [7]: Active | Activity [8]: Active | fold change (FC) (HCT-116 [9]): 4.67 | fold change (FC) (HCT-116 [10]): 1.07

N=C(N)c1ccc(-c2ccc(-c3cc(Cl)cc(Cl)c3)o2)o1
GI50 (UO-31): 1.71 µM | GI50 [1]: 1.74 µM | LC50 [1]: 10.7 µM | TGI [1]: 3.47 µM | IC50 (WI-38): 16 µM | Selectivity Index [2]: 9.2 | GI50 (PC-3): 1.8 µM | GI50 (OVCAR-3): 1.7 µM | inhibition of growth at 10 µM [3]: -57.8% | GI50 (DU-145): 1.78 µM | GI50 (ACHN): 1.71 µM | GI50 (786-0): 1.78 µM | GI50 (SK-OV-3): 1.8 µM | GI50 (NCI/ADR-RES): 1.84 µM | GI50 (IGROV-1): 1.73 µM | GI50 (SK-MEL-5): 1.86 µM | GI50 (SK-MEL-2): 2.02 µM | GI50 (MDA-MB-435): 1.61 µM | GI50 (Malme-3M): 1.84 µM | GI50 (LOX IMVI): 1.68 µM | GI50 (U-251): 1.82 µM | GI50 (SNB-75): 1.41 µM | GI50 (SNB-19): 1.99 µM | GI50 (SF-295): 1.77 µM | GI50 (SF-268): 1.77 µM | GI50 (KM12): 1.65 µM | GI50 (HT-29): 1.5 µM | GI50 (HCT-15): 1.64 µM | GI50 (HCC 2998): 1.84 µM | GI50 (NCI-H460): 1.9 µM | GI50 (NCI-H322M): 1.62 µM | GI50 (EKVX): 1.64 µM | GI50 (A549): 1.95 µM | GI50 (MOLT-4): 1.69 µM | GI50 (HL-60(TB)): 1.62 µM | GI50 (CCRF-CEM): 1.87 µM | GI50 (Hs-578T): 2.22 µM | Activity (Erythrocyte [4]): Non-Toxic | Activity (Erythrocyte [5]): Non-Toxic | fold change (FC) [6]: 0.2 | Activity [7]: Active | Activity [8]: Active | fold change (FC) (HCT-116 [9]): 2.97 | fold change (FC) (HCT-116 [10]): 0.54
